Measurements reported in a melting point compilation (Tetko et al.; mined from patent text by program, amines drawn as free bases though some values may be those of a salt).

SMILES	melting point [°C]
Cc1ccc([N+](=O)[O-])c(CO)c1C	48 to 51
CCOC(=O)C1=C(N)N=C(N(C)C)C(C(=O)OCC)C1c1cccc([N+](=O)[O-])c1 (stereo not drawn)	149
O=C(O)CCCNC(=O)c1ccccc1NC(=O)c1ccccc1[N+](=O)[O-]	142 to 144
CC(=O)NC(C#N)NC(=O)c1cc(C)cc(C)c1 (stereo not drawn)	195 to 197
CCOC(=O)c1c(C)nn(C)c1S(=O)(=O)N=c1nc2nc(C)cc(C)n2s1	167 to 168
COCCN1CCn2c1nc(C(=O)O)c(OCc1ccccc1)c2=O	125 to 126
CC12CCC3C(CCC4CC(I)CCC43C)C1CCC2=O (stereo not drawn)	123 to 125
O=C(O)COc1ccc2c(c1)OCO2	149 to 151
CCCOc1cc2c(cc1OCCC)CCC(C(=O)N1CCN(C(=O)c3cc(OC)c(OC)c(OC)c3)CC1)=C2	124 to 126
Oc1c(Br)cc2oc3ccccc3c2c1Br	176 to 178
CCCc1nc2c(N)nc(C)c(C)c2n1C1(OC)CCCCC1	192 to 193
N#Cc1ncn(Cc2ccccc2)c1C#N	123 to 125
Clc1ccn(-c2cccnc2)n1	98 to 106
CN1CCN(c2ccc(I)nn2)CC1	149
CNc1nc2c(s1)C(=O)CCC2	180 to 182
CCOC(=O)c1cn(C2CC2)c2c(F)c(NCCCO)c(F)cc2c1=O	160 to 162
CC(C)Sc1nc(C(F)(F)F)c(I)c(=O)[nH]1	212 to 215

SMILES	melting point [°C]
O=C(O)CCC(=O)N[C@H]1C[C@H](C(=O)O)Nc2cc(Cl)cc(Cl)c21 (relative stereo)	221 to 223
CCCc1oc(C)cc(=O)c1C(=O)Nc1ccccc1	133 to 134
CC(=O)Nc1ccc2c(c1)/C(=N\NC(N)=O)C(=O)N2CCN(C(C)C)C(C)C	135 to 137
N#Cc1cc(F)c(N2CCN(Cc3cnc4c(c3)NC(=O)[C@@H]3CCCN43)CC2)cc1F	224 to 227
O=C(OC1CCCC1=O)c1ccccc1 (stereo not drawn)	87 to 88
O=C(CI)Nc1ccc(C(=O)O)cc1	194 to 196
Brc1coc(-c2cn([C@H]3CN4CCC3CC4)nn2)c1	129
C=CCc1cc2c(cc1O)CCC(=O)N2CC=C(C)C	148 to 150
CCn1ncc2c(NCC3CCCCC3)c3ccccc3nc21	161 to 163
Oc1ccc(CCCCn2cncn2)cc1	135 to 136
COC(=O)C1=C(C)NC(=S)N(C(=O)OC)C1c1cccc([N+](=O)[O-])c1 (stereo not drawn)	172 to 173
CCCCCCCCCCCCC1=C(OC(C)=O)C(=O)c2c(C)cccc2C1=O	69 to 74
CCCCCCCCCCCN(CC)C(=O)N(O)O	42 to 43
Cc1ccc2occ(C3CCN(CCc4cc5c(s4)CCCC(=O)N5)CC3)c2c1	156 to 158
COc1cc(Cc2cnc(N)nc2N)cc2c1NCCC2C (stereo not drawn)	221 to 223
Oc1ccc(Nc2cc(Cl)ncn2)cc1	241 to 244
COc1cc(C(C)C)cc(OC)c1-c1nc(N)sc1CCC1CCCCC1	143

The next lines start with the values.

melting point [°C]	SMILES
211 to 214	O=C(c1ccc(Nc2ccnc3cc(C(F)(F)F)ccc23)cc1)N1CCC(Sc2ccc(F)cc2)CC1
203 to 205	CCc1nnc2c(Cl)nc3cc(F)ccc3n12
154 to 155	CS(=O)c1ccc(-c2cnn(CC(F)(F)F)c(=O)c2-c2ccc(Cl)cc2)cc1 (stereo not drawn)
136 to 138	COc1ccc2c(c1)cc(/C=C/c1ccccc1Cl)n2CCC#N
235 to 236	CSc1ccc(-c2csc(NC(C)=O)n2)cc1
164 to 168	CCOCCOc1ccc(-c2ccc3c(c2)C=C(C(=O)Nc2ccc(CN(C)C4CCOCC4)cc2)CCS3(=O)=O)cc1OCC
188 to 189	Cc1ccc(C(=O)NC(NC(=NC#N)Nc2cccnc2)C(C)(C)C)cc1 (single isomer, unassigned; (+))
168	O=c1c(Cl)c(Cl)cnn1-c1cc([N+](=O)[O-])c(Cl)cc1F
157 to 158	O=C1NC(=O)C(S(=O)c2ccc3ccccc3c2)S1 (stereo not drawn)
85 to 87	COC(=O)c1cc(Oc2ccc(Cl)c(C)c2)ccc1[N+](=O)[O-]
84 to 85	CC(C)Oc1ccc(CCCOc2ncccc2CC(=O)O)c(Oc2ncc(Cl)cc2Cl)c1
218 to 220	COc1ccc2cccc3c2c1C(=O)C3=O
74	CCCCc1cc(OCc2ccc(C#N)cc2)c2ccccc2n1
187 to 188	COc1ccc(-c2cc(-c3ccccc3)[nH]c2C(=O)NCc2ccc(C(=O)NO)cc2)cc1
144 to 146	C[Si](C)(C)C#Cc1ccc(C#Cc2ccc(F)cc2)cc1
109 to 111	COc1ccc(-c2nc(COc3cccc([N+](=O)[O-])c3)c(C)o2)cc1
88	CCOC(=O)c1c(C(Cl)Cl)nc2c(C(F)(F)F)cccc2c1O
395 to 396	COc1ccc(-n2nc(O)c3c(=O)c4ccc(Cl)cc4[nH]c3c2=O)cc1Cl
166 to 169	CCCCOc1ccc(Nc2c([N+](=O)[O-])ccc(Cl)c2C(=O)O)cc1
184 to 185	CC(=O)Nc1nc(CCc2ccc(NC(=O)OC(C)(C)C)cc2)c(C(=O)NCc2ccccc2)s1

melting point [°C]	SMILES
122 to 124	CS(=O)(=O)c1ccc(-c2[nH]nc(C(=O)CCCO[N+](=O)[O-])c2C2CCCCC2)cc1
159 to 166	CC(NC(=O)Cc1cc(F)cc(F)c1)C(=O)NC1C(=O)NCc2cc(Cc3ccccc3)ccc21 (stereo not drawn)
135 to 136	O=C(CCN1CCN(Cc2ccccc2)CC1)c1ccc2oc3ccccc3c2c1
185 to 186	Oc1ccc(-c2c(Br)ccc3sc4ccccc4c23)cc1
116 to 117	CSc1ccc(NS(=O)(=O)c2ccc(C)cc2)c([N+](=O)[O-])c1
222 to 223	CCOC(=O)c1cccc(-c2ccc3c(c2)N(C(=O)Cc2cccc(C(F)(F)F)c2)CC3)c1
194 to 195	O=C1C(=Cc2ccc(O)c(CO)c2)Cc2ccccc21
176 to 178	CN(C)c1cccc2c(S(=O)(=O)Nc3ccc(I)nn3)cccc12
190 to 191	O=C(O)CCC(CCNCCc1ccccc1)n1nc(Cc2ccc(F)cc2)c2ccccc2c1=O (stereo not drawn)
215 to 217	Cc1nc(-c2ccc(Cl)cc2)n(-c2ccc(S(N)(=O)=O)cn2)n1
162 to 165	CC(C)NC(=O)Nc1ccc(-c2ccnc3c(C(=O)c4cccs4)cnn23)s1
64 to 67	CCCC(c1cccc(NC(=O)OCc2ccccc2)c1)c1c(O)c2c(oc1=O)CCCCCC2 (stereo not drawn)
100 to 101	COc1ccc(Cn2ncc3nc(Cl)nc(Cl)c32)cc1
103 to 104	CNCc1cn(-c2ccccc2)nc1OCc1ccc(OCc2nc(-c3ccco3)oc2C)c(OC)c1
277 to 279	Cc1ccc(-c2[nH]c(-c3c(C)cc(C)cc3C)nc2-c2ccncc2)cc1
190 to 193	CCCc1c(/C=C/c2ccccc2C)nc2ccc(C(=O)OC)cn2c1=O
71 to 73	ClCCCOc1ccc(-c2cnc(CSCCOc3ccccc3)o2)cc1
222 to 225	O=C1C2CCCN2c2ncccc2N1Cc1ccccc1 (stereo not drawn)
183 to 185	c1cncc(CC2CCN(CC34CC(c5ccccc53)c3ccccc34)CC2)c1
